Values quoted from earlier work in patent publication US20210319872A1, “DRUG AND DEVICE COMBINATION PRODUCTS WITH IMPROVED SAFETY AND EFFICACY PROFILES” (priority 2016, published 2021).
Like-named read-outs stand apart in the source and are kept apart here.

In the case of `Nc1nnc(-c2cccc(Cl)c2Cl)c(N)n1` [Lamictal XR], the Anxiety (extended-release) is given as 3%, the Asthenia (extended-release) is given as 6% and the Blurred vision (extended-release) is given as 3%. The Coordination problem (extended-release) was 3%, the Depression (extended-release) was 3% and the Diarrhea (extended-release) was 5%. For the same compound, the Diplopia (extended-release) was “extended-release, 5%)”, the Dizziness (extended-release) was 14% and the Nausea (extended-release) was 7%. The Somnolence (extended-release) was 5%, the Tremor (extended-release) was 6% and the Vertigo (extended-release) was “release, 3%)”. For the same compound, the Vomiting (extended-release) was 6%, the Anemia (immediate release) was “Hematologic: Anemia (immediate release, less than 0.1%),” and the Eosinophilia (immediate release) was < 0.1%. The Thrombocytopenia (immediate release) was < 1%), Thrombocytopenia (immediate release, less than 0.1%), the Anxiety (immediate-release) was “Psychiatric: Anxiety (immediate-release, 4%; extended-release,” and the Depression (immediate-release) was 4%. The Headache (immediate-release) was “Headache (immediate-release, 29%), Insomnia (immediate-release,”, the Pain (immediate-release) was “Other: Pain (immediate-release, 5%)” and the Vertigo (immediate-release) was 2%. For the same compound, the Blurred vision (immediate-release, children) was 4%, the Diplopia (immediate-release, children) was 5% and the Angioedema (in vivo) was < 0.1%. The Erythema multiforme (in vivo) was “Dermatologic: Erythema multiforme (less than 0.1%), Rash,”, the “Serious side effect, Hematologic” value (listed without frequency) was “Disseminated intravascular coagulation, Eosinophilia (immediate” and the “Serious side effect, Hepatic” value (listed without frequency) was “Hepatic: Liver failure”. For the same compound, the “Serious side effect, Immunologic” value (listed without frequency) was “Immunologic: Drug hypersensitivity syndrome” and the “Serious side effect, Neurologic” value (listed without frequency) was “Neurologic: Aseptic meningitis”.

For `NCC1(CC(=O)O)CCCCC1` [Gabapentin (Neurontin)], the Ataxia (in vivo) is listed as “Neurologic: Ataxia (Adult, 3%; adult and adolescent, 13%),”, the “Disorder of form of thought” value (in vivo) is listed as “Psychiatric: Disorder of form of thought (Pediatric, 1.7%),” and the Disturbance in thinking (in vivo) is listed as “Disturbance in thinking (2% to 3%), Hostile behavior (Pediatric,”. For the same compound, the Fatigue (in vivo) was “Other: Fatigue (3% to 11%), Fever (Pediatric, 10%)”, the Fever (in vivo) was “Other: Fatigue (3% to 11%), Fever (Pediatric, 10%)” and the Hostile behavior (in vivo) was 5.2%), Hyperactive behavior (Pediatric, 4.7%), Mood swings. For the same compound, the Hyperactive behavior (in vivo) was 5.2%), Hyperactive behavior (Pediatric, 4.7%), Mood swings, the Mood swings (in vivo) was “(Pediatric, 6%), Suicidal thoughts” and the Nausea (in vivo) was “Gastrointestinal: Nausea (greater than 1%), Vomiting (3.3%)”. The Nystagmus (in vivo) was “Nystagmus (Adult and adolescent, 8%)”, the Peripheral edema (in vivo) was “Cardiovascular: Peripheral edema (1.7% to 8.3%)” and the “Serious side effect, Dermatologic” value (in vivo) was “Dermatologic: Stevens-Johnson syndrome”. For the same compound, the “Serious side effect, Immunologic” value (in vivo) was “Immunologic: Drug hypersensitivity syndrome”, the “Serious side effect, Psychiatric” value (in vivo) was “(Pediatric, 6%), Suicidal thoughts” and the Viral disease (in vivo) was “Immunologic: Viral disease (10.9%)”. The Vomiting (in vivo) was “Gastrointestinal: Nausea (greater than 1%), Vomiting (3.3%)”.

For Contrave, the Amnesia (in vivo) is listed as “Neurologic: Amnesia (Less than 2%), Seizure (0.1%)”, the Anxiety (in vivo) is listed as “Psychiatric: Anxiety (4.2%)” and the Cholecystitis (in vivo) is listed as “Gastrointestinal: Cholecystitis (Less than 2%), Hematochezia (Less”. For the same compound, the Constipation (in vivo) was “Gastrointestinal: Constipation (19.2%), Diarrhea (7.1%), Nausea”, the Depression (in vivo) was “Psychiatric: Depression (6.3% to 7.1%), Mania, Psychiatric” and the Diarrhea (in vivo) was “Gastrointestinal: Constipation (19.2%), Diarrhea (7.1%), Nausea”. For the same compound, the Dizziness (in vivo) was “Neurologic: Dizziness (9.9%), Headache (17.6%), Insomnia (9.2%)”, the Erythema multiforme (in vivo) was “Dermatologic: Erythema multiforme (Rare), Stevens-Johnson” and the Headache (in vivo) was “Neurologic: Dizziness (9.9%), Headache (17.6%), Insomnia (9.2%)”. The Hypertension (in vivo) was “Cardiovascular: Hypertension (3.2%), Increased heart rate,”, the “Infectious disorder of kidney” value (in vivo) was “Renal: Infectious disorder of kidney (Less than 2%), Serum” and the Insomnia (in vivo) was “Neurologic: Dizziness (9.9%), Headache (17.6%), Insomnia (9.2%)”. For the same compound, the Intervertebral disc prolapse (in vivo) was “Musculoskeletal: Intervertebral disc prolapse (Less than 2%)”, the Myocardial infarction (in vivo) was “Myocardial infarction (Less than 2%)” and the Nausea (in vivo) was “(32.5%), Vomiting (10.7%), Xerostomia (8.1%)”. The Pneumonia (in vivo) was “Respiratory: Pneumonia (Less than 2%)”, the Seizure (in vivo) was “Neurologic: Amnesia (Less than 2%), Seizure (0.1%)” and the “Serious side effect, Cardiovascular” value (in vivo) was “Cardiovascular: Hypertension (3.2%), Increased heart rate,”. The “Serious side effect, Endocrine metabolic” value (in vivo) was “Endocrine metabolic: Hypoglycemia”, the “Serious side effect, Hepatic” value (in vivo) was “Hepatic: Hepatotoxicity” and the “Serious side effect, Immunologic” value (in vivo) was “Immunologic: Anaphylaxis, Delayed hypersensitivity disorder”. For the same compound, the “Serious side effect, Ophthalmic” value (in vivo) was “Ophthalmic: Angle-closure glaucoma”, the “Serious side effect, Psychiatric” value (in vivo) was “Psychiatric: Depression (6.3% to 7.1%), Mania, Psychiatric” and the Serum creatinine raised (in vivo) was “creatinine raised (Less than 2%)”. For the same compound, the Stevens-Johnson syndrome (in vivo) was “syndrome (Rare)”, the Suicidal thoughts (in vivo) was “symptom, Suicidal thoughts (0.03%)” and the Vomiting (in vivo) was “(32.5%), Vomiting (10.7%), Xerostomia (8.1%)”. For the same compound, the Xerostomia (in vivo) was “(32.5%), Vomiting (10.7%), Xerostomia (8.1%)”.

For `Cc1cc2c(s1)Nc1ccccc1N=C2N1CCN(C)CC1` [Olanzapine (Zyprexa)], the Akathisia (in vivo) is listed as “Neurologic: Akathisia (5% to 27%), Asthenia (2% to 20%),”, the Asthenia (in vivo) is listed as “Neurologic: Akathisia (5% to 27%), Asthenia (2% to 20%),” and the Constipation (in vivo) is listed as “Gastrointestinal: Constipation (4% to 11%), Xerostomia (Adult, up”. For the same compound, the Dizziness (in vivo) was “Dizziness (Adult, 1.6% to 18%; adolescent, 7% to 8%),”, the Hyperprolactinemia (in vivo) was “adolescent, up to 14%), Hyperprolactinemia (30% to 61.1%),” and the Increased appetite (in vivo) was “Increased appetite (Adult, 3% to 24%; adolescent, 17% to 29%),”. For the same compound, the Orthostatic hypotension (in vivo) was “Cardiovascular: Orthostatic hypotension (More than 5%),”, the Peripheral edema (in vivo) was “Peripheral edema (3% to 6%)” and the Personality disorder (in vivo) was “Psychiatric: Personality disorder (8%)”. For the same compound, the Serum triglycerides raised (in vivo) was “Serum triglycerides raised (20.8% to 40%), Weight increased, 7%”, the Somnolence (in vivo) was “Somnolence (IM, 6%; oral, 20% to 52%), Tremor (1% to 23%)” and the Tremor (in vivo) was “Somnolence (IM, 6%; oral, 20% to 52%), Tremor (1% to 23%)”. The Somnolence (in vivo, po) was “Somnolence (IM, 6%; oral, 20% to 52%), Tremor (1% to 23%)”.

In the case of `CC(C)(C)NCC(O)COc1cccc2c1CCC(=O)N2` (stereo not drawn) [Carteolol (Cartrol)], the Asthenia (in vivo) is listed as “Neurologic: Asthenia (7%.), Dizziness (4% to 15%.), Headache”, the “Burning sensation in eye” value (in vivo) is listed as “Ophthalmic: Blurred vision, Burning sensation in eye (25%),” and the Conjunctival edema (in vivo) is listed as “Conjunctival edema (25%), Conjunctival hyperemia (25%),”. For the same compound, the Conjunctival hyperemia (in vivo) was “Conjunctival edema (25%), Conjunctival hyperemia (25%),”, the Dizziness (in vivo) was “Neurologic: Asthenia (7%.), Dizziness (4% to 15%.), Headache” and the Epiphora (in vivo) was “Epiphora (25%), Eye irritation (25%)”. The Eye irritation (in vivo) was “Epiphora (25%), Eye irritation (25%)”, the Headache (in vivo) was “(4% to 17%.), Insomnia (2% to 12%.)” and the Insomnia (in vivo) was “(4% to 17%.), Insomnia (2% to 12%.)”.

For `O=C(Nc1c(Cl)cncc1Cl)c1ccc(OC(F)F)c(OCC2CC2)c1` [Daliresp], the Backache (in vivo) is listed as “Musculoskeletal: Backache (3.2%)”, the Decrease in appetite (in vivo) is listed as 2.1% and the Diarrhea (in vivo) is listed as 9.5%. The Dizziness (in vivo) was 2.1%, the Headache (in vivo) was 4.4% and the Influenza (in vivo) was “Immunologic: Influenza (2.8%)”. For the same compound, the Insomnia (in vivo) was 2.4%, the Nausea (in vivo) was “Nausea (4.7%)” and the “Serious side effect, Psychiatric” value (listed without frequency) was “Psychiatric: Suicidal thoughts”.

In the case of `Cn1c(CNc2ccc(C(=N)N)cc2)nc2cc(C(=O)N(CCC(=O)O)c3ccccn3)ccc21` [Dabigatran (Pradaxa)], the Bleeding (in vivo) is given as “prophylaxis, 10.5%; nonvalvular atrial fibrillation, 16.6%)”, the “Bleeding, Major” value (in vivo) is given as 0.3% to 1.4%; nonvalvular atrial fibrillation, 3.3%), Thrombosis and the Gastroesophageal reflux disease (in vivo) is given as “disease (Atrial fibrillation, 5.5%), Gastrointestinal hemorrhage”. For the same compound, the Indigestion (in vivo) was “pulmonary embolism, 7.5%)” and the Myocardial infarction (in vivo) was “embolism, 0.32% to 0.66%; nonvalvular atrial fibrillation, 0.7%)”.

For `CC1(C)O[C@@H]2[C@@H](CO[C@@]3(COS(N)(=O)=O)OC(C)(C)O[C@@H]23)O1` [Trokendi XR], the Hyperammonemia (Adolescents) is listed as “Endocrine metabolic: Hyperammonemia (Adolescents, 26%),”, the “Serious side effect, Hepatic” value (listed without frequency) is listed as “Hepatic: Liver failure” and the “Serious side effect, Neurologic” value (listed without frequency) is listed as “Neurologic: Drug-induced encephalopathy”. The “Serious side effect, Psychiatric” value (listed without frequency) was “Psychiatric: Suicidal thoughts” and the Flushing (pediatrics) was “Dermatologic: Flushing (pediatrics, 5%)”.
